From paper PMC1968759, “Biological effects of stable overexpression of aromatase in human hormone-dependent breast cancer cells” (British Journal of Cancer, 1994)

Legend:
[1] = molecular target: T1, aromatase (Homo sapiens, UniProt P11511); assay: cell-based
T1 construct: gene CYP19A1; human placental aromatase cDNA (nucleotides 16-1539) stably expressed in MCF-7 cells (clone Arom. 1)
T1 sequence (P11511 1-503): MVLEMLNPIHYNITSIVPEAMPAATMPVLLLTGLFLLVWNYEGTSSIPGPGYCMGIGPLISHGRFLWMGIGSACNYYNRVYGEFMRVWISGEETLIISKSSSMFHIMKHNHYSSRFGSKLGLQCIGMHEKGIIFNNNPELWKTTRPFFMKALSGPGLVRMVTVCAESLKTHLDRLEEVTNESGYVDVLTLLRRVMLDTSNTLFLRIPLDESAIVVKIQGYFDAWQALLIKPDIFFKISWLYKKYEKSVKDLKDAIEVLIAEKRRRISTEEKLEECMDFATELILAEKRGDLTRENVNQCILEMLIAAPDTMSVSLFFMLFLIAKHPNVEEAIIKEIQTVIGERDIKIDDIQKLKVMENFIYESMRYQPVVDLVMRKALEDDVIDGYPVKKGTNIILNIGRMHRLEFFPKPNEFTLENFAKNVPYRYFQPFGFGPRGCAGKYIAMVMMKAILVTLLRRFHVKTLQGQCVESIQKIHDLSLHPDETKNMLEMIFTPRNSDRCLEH

[2] = substrate: C[C@]12CCC(=O)C=C1CC[C@@H]1[C@@H]2CC[C@]2(C)C(=O)CC[C@@H]12; assay: cells, lysate or membranes

C[C@]12CCC(=O)C(O)=C1CC[C@@H]1[C@@H]2CC[C@]2(C)C(=O)CC[C@@H]12 [4-hydroxyandrostenedione] gave an IC50 [1] of 70 nM.

B1: aromatase (Homo sapiens) (protein)
chain: T1 sequence (P11511 1-503)
In the case of B1, the Km [2] is reported as 0.07 µM.
